Reference: PMC9570109, “Improved Trimethylangelicin Analogs for Cystic Fibrosis: Design, Synthesis and Preliminary Screening” (International Journal of Molecular Sciences, 2022)
“Also recorded” adds a separate entry of the source.

Biological target: T1, F508del CFTR (Homo sapiens, UniProt P13569, DEL508-508)
T1 construct: expressed in transfected cells; host or cells: CFBE41o- cells overexpressing F508del CFTR and HS-YFP (YFP-H148Q/I152L), a gift from N. Pedemonte, Gaslini Institute
Experiment: F508del CFTR functional rescue (corrector) HS-YFP single-cell assay
Assay type: cell-based
Conditions: CFBE41o- YFP-F508del cells; for F508del CFTR rescue (corrector) activity: 48 h incubation, 200 nM
Description: To verify the possibility that the title compounds may act as correctors in CFBE41o-, overexpressing F508del and the high sensitivity halide-sensing yellow fluorescent protein (HS-YFP) YFP-H148Q/I152L, we examined the effect of 48 h preincubation with vehicle or the TMA analogs or TMA or VX809 (Lumacaftor), as a positive control.
At the time of the assay, the correction of the F508del-CFTR function was evaluated in single-cell analysis by measuring the decrease in YFP fluorescence after the concomitant addition of extracellular iodide and the activating cocktail (20 μM forskolin and 5 μM VX770), in the presence or absence of the 10 μM CFTR inhibitor, CFTRinh-172. […] At least two derivatives show CFTR activity similar to that of the parent TMA.
The effect of TMA analogs on CFTR function was tested in CFBE41o- overexpressing F508del and the high sensitivity halide-sensing yellow fluorescent protein (HS-YFP) YFP-H148Q/I152L (a generous gift from N. Pedemonte, Gaslini Institute, Genova, Italy). YFP CF cells were seeded on round glass coverslips and preincubated for 48 h with vehicle or test compounds or VX809 or TMA. At the time of the assay, cells were washed in Dulbecco’s PBS (in mM: 137 NaCl, 2.7 KCl, 8.1 Na2HPO4, 1.5 KH2PO4, 1 CaCl2, and 0.5 MgCl2, pH 7.4) and subsequently incubated with a stimulation cocktail (20 μM forskolin and 5 μM VX770) in the presence and absence of 10 μM CFTR inhibitor, CFTRInh-172 (Sigma), for 30 min. The coverslips were then transferred on a Nikon TMD inverted microscope through a Nikon Fluor 40 objective. The signal was acquired with a Hamamatsu C2400–97 charge-coupled intensified video camera at a rate of 1 frame/3 s. The fluorescence coming from every single cell was analyzed by custom software (Spin, Vicenza, Italy). The results are presented as transformed data to obtain the percentage signal variation (Fx) relative to the time of addition of the stimulus, according to the equation: Fx = ([Ft − Fo]/Fo) × 100, where Ft and Fo are the fluorescence values at time t and at the time of stimulus addition, respectively. The assay of each sample consists of a continuous 99-s fluorescence reading with 30 s before and 69 s after injection of the iodide-rich Dulbecco’s PBS (in mM: 137 NaI, 2.7 KCl, 8.1 Na2HPO4, 1.5 KH2PO4, 1 CaCl2, and 0.5 MgCl2, pH 7.4) to reach a final iodide concentration of 50 mM [20]. The different sensitivity of HS-YFP toward iodide and chloride allows assays to be performed by measuring the transport of anions through the plasma membrane as changes in cell fluorescence. For this assay, cells expressing HS-YFP are equilibrated in a physiological chloride-rich saline solution (e.g., Dulbecco’s PBS). During fluorescence reading, cells are exposed to a high concentration of iodide. Iodide influx quenches the cell fluorescence with a rate that depends on the permeability of the cell membrane to halides, and therefore, on the activity of the anion channels or transporters.
Figure 4 Evaluation of different TMA analogs as F508del CFTR correctors in CFBE41o- YFP-F508del cells. Correction of F508del-CFTR function was assessed, in a single cell, by measuring the decrease in YFP fluorescence upon addition of extracellular iodide and with the activating cocktail, in the presence or absence of CFTR inhibitor, CFTRInh-172. Iodide influx was tested under control condition (vehicle) or after 48 h incubation with the correctors 200 nM or 1 μM VX809. The YFP fluorescence decay rate was calculated by fitting the fluorescence data with an exponential function of time courses. CFTR activity was obtained by the difference between the fluorescence decay rate of YFP in the presence and absence of CFTRInh-172. Fluorescence coming from every single cell of at least five cells per field was recorded. Each bar corresponds to the mean ± SEM of data points coming from at least three different experiments (5–10 different cells/each experiment). […]

T1 sequence (P13569 with tags, fused parts or gaps DEL508-508): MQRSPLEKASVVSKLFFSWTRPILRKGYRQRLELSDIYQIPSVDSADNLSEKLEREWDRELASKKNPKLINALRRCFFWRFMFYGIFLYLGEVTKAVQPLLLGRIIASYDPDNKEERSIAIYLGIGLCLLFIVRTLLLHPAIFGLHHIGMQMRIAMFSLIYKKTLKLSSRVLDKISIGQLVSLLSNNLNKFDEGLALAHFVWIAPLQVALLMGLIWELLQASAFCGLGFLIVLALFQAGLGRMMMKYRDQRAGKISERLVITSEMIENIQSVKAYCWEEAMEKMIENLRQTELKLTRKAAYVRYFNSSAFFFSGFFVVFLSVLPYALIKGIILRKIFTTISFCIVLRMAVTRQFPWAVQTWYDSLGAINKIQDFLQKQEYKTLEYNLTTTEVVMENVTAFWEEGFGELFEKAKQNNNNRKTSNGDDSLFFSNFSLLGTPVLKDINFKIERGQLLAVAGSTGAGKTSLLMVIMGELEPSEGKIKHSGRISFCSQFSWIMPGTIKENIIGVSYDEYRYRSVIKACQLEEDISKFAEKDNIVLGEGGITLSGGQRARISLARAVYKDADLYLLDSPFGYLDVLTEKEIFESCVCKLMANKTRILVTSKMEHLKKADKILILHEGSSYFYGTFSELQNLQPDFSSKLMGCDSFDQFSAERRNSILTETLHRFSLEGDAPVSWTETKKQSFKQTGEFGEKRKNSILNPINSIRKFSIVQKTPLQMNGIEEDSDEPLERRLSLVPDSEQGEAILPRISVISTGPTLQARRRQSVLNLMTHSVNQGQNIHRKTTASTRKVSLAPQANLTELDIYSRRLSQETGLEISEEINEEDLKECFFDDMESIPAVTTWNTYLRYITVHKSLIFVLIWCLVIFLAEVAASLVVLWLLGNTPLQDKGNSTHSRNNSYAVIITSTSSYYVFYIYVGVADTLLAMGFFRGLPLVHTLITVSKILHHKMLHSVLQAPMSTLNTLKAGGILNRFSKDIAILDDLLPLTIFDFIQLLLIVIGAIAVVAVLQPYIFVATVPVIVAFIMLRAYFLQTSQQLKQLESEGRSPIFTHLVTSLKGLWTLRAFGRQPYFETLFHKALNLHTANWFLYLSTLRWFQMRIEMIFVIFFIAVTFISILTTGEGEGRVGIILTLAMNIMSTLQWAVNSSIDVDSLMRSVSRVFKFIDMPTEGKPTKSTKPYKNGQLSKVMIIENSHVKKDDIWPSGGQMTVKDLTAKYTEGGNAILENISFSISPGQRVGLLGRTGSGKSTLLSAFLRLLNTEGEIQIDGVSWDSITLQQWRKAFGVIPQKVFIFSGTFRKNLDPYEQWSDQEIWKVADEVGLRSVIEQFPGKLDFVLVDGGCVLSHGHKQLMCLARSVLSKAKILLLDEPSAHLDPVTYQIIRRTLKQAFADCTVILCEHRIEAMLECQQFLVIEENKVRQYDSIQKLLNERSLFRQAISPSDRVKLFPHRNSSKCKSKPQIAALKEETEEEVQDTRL

| Compound | F508del CFTR rescue (corrector) activity | F508del CFTR rescue (corrector) activity (listed as 12) | reduction in YFP fluorescence induced by iodide influx compared to vehicle (48 h treatment, representative time courses) | F508del CFTR rescue (corrector) activity (listed as 25) |
| --- | --- | --- | --- | --- |
| Cc1cc2c(-c3ccccc3)cc(=O)oc2c2c(C)coc12 [4-PhDMA] | active; also recorded: most active derivatives of the series | promising F508del CFTR rescue ability | greater reduction in YFP fluorescence |  |
| Cc1cc(=O)oc2c1cc(-c1ccccc1)c1occ(C)c12 [6-PhDMA] | inactive |  |  |  |
| Cc1cc(=O)oc2c1cc(-c1ccc(N)cc1)c1occ(C)c12 [pANDMA] | most active derivatives of the series |  |  | promising F508del CFTR rescue ability |
